We go through eleven compounds from patent US4542153A, “Methods for changing calcium metabolism within the cells of a mammal” (The Ohio State University Research Foundation, priority 1983, dated 1985).

SMILES strings stand for the structures. Like-named read-outs stand apart in the source and are kept apart here.

Data set [1] concerns thoracic aorta strips contracted with norepinephrine. The data set is described as follows: Vasodilator activity: norepinephrine-contracted aortic strips. It counts as cell-based, male Sprague-Dawley rats. The following applies: for IC50: read-out: IC50 (mean and range of SEM) Norepinephrine; for comparative vasodilator activity, norepinephrine-treated tissue: norepinephrine-treated aortic tissue; for relaxation of the aortic tissue: norepinephrine- or KCl-treated tissue. An excerpt:
(§1) Pr-MDI, bu-MDI, Q-bu-MDI and the compounds of Formulae IIIA, IIIB and IVA having the two R1 groups together forming a methylene group, each R3 a methyl group and R2 an n-propyl group or n-butyl group (the compounds of Formula III are hereinafter abbreviated as sat-pr-MDI and sat-bu-MDI respectively, reference being made where necessary to the cis isomer of Formula III A or the trans isomer of Formula III B while the compounds of Formula IV are similarly referred to as cis sat-Q-pr-MDI and cis sat-Q-bu-MDI) were tested for vasodilator activity by the method of R. F. Furchgott and S. Bhadrakom, J. P. Pharmacol. Ex. Ther., 108, 129-143 (1953).
(§2) The vasodilator activity tests were conducted on male Sprague-Dawley rats, obtained from Harlan Industries, Inc., Cumberland, Indiana. The rats, weight 250-300 g., were sacrified by cervical dislocation and a 2.5 cm. segment of the thoracic aorta was removed and rinshed in physiological buffer. Each aortic segment was cleaned of connective tissue and cut spirally two yield to strips, each 3 by 15 mm. Each strip was mounted isometrically under a tension of 1 g in a 10 ml. tissue bath thermostatically maintained at 37° C. and containing a normal physiological solution aerated with a 95% oxygen/5% carbon dioxide mixture. Forces generated by the strip were monitored using a Grass FT03 isometric transducer coupled to a Grass module 7D polygraph recorder, both the transducer and the recorder being obtained from Grass Instrument Co., of Quincy, Mass.
(§3) After the aortic tissue had been allowed to equilibriate for 1-1.5 hours in the normal physiologic solution, tissue contraction was induced by introducing either 10^-7 M norepinephrine or 40mM potassium chloride buffer to the tissue bath.
(§4) To avoid interference by loss of tension due to time dependent tissue fatigue, separate preliminary experiments were performed to determine the degree of tissue relaxation due to such fatigue and the value of the control tension generated by norepinephrine or potassium chloride prior to the addition of the test compounds was adjusted whenever the duration of the experiment was such that fatigue could be expected to cause more than a 6% loss of tension. […] All concentrations mentioned hereinafter represent the final concentration of the test compound after dilution in the tissue bath.
(§5) The figures of concentration against percent response data obtained from each aortic tissue were transformed to its appropriate probit value and IC50 values were then estimated using linear regression analysis. The normal physiological solution contained 6.9 g/l of sodium chloride, 0.35 g/l of potassium chloride, 0.11 g/l of magnesium chloride hexahydrate, 0.138 g/l of sodium dihydrogen phosphate, 2.1 g/l of sodium bicarbonate, 0.01 g/l of EDTA, 0.368 g/l of calcium chloride dihydrate and 2.0 g/l of dextrose. The high potassium buffers were obtained by substituting potassium chloride for sodium chloride on an equimolar basis to maintain tonicity.

Data set [2] concerns thoracic aorta strips contracted with potassium chloride. As to the kind of experiment: Vasodilator activity: potassium chloride-contracted aortic strips. It counts as cell-based, male Sprague-Dawley rats. The note with it: for IC50: read-out: IC50 (mean and range of SEM) KCl; for comparative vasodilator activity, potassium chloride-treated tissue: KCl-treated aortic tissue.
Source text: as §1, §2, §3, §4, §5

In data set [3] the test system is calcium-induced arrhythmias in rats. As to the kind of experiment: Calcium-induced arrhythmias (CaCl2 injected i.v. into anesthetized rats). An excerpt: The experimental method used was that described in Lynch J. J., Rahwan R. G., Witiak D. T.: Effects of 2-substituted-3-dimethylamino-5,6-methylenedioxyindenes on calcium-inducedarrhythmias, J. Cardiovasc. Pharmacol. 3: 49-60 (1981). Male Sprague-Dawley rats weighing 180-250 grams were anesthetized with sodium pentobarbital and a cannula was inserted into the left jugular vein for drug administration. Electrocardiograph equipment was connected to the rat and the lead II was continuously monitored. The compound under test, dissolved in 5% dextrose solution, was administered into the jugular vein of anesthetized rats over a 40 second period. Ten minutes after this treatment, an acute dose of 1 ml/kg of a 10% CaCl2.2H2 O solution was injected into the jugular vein over a period of 10 seconds. The arrhythmias resulting from the calcium administration were graded according to the following criteria: (a) initial change in heart rate following calcium administration; (b) incidences of sinoatrial block, atrioventricular block, ectopic beats, and ventricular flutter and fibrillation; (c) time required for reversion to control ECG; and (d) incidence of mortality.

Data set [4] deals with chloroform anoxia arrhythmia in mice. The data set is described as follows: Chloroform Anoxia Assay (chloroform-induced ventricular fibrillation). It counts as in vivo, Female Swiss albino mice. The note with it: for ED50: i.p., 10 min before chloroform, table: mean values and 95% confidence limits. On the procedure:
The same four compounds were tested for their ability to protect mice from chloroform anoxia by the classical chloroform inhalation procedure described in Lawson J. W.: Antiarrhythmic activity of some isoquinoline derivatives determined by a rapid screening procedure in the mouse, J. Pharmacol. Exp. Ther. 160: 22-31, (1968). In this method, chloroform inhalation leading to respiratory arrest produces ventricular fibrillation. Female Swiss albino mice procured from Laboratory Supply Company, Indianapolis, Indiana, weighing 16-22 g, were pretreated intraperitoneally with the compound under test dissolved in a 5% dextrose solution 10 minutes before exposure to chloroform in a closed container containing chloroform-saturated cotton. The mice were removed from the chloroform atmosphere immediately after respiratory arrest and the electrocardiograph lead II monitored. The ED 50 and 95% confidence limits calculated for the anti-arrhythmic agents by the standard method of Litchfield and Wilcoxon.

The test system of data set [5] is mice. As to the kind of experiment: Toxicity Tests (intraperitoneal LD50). The following applies: i.p., table: mean values and 95% confidence limits. It counts as in vivo.
In data set [6] the test system is isolated left atria. The data set is described as follows: Effects on isolated guinea pig atria: electrically driven left atria. It counts as cell-based. An excerpt:
The effects of pr-MDI, bu-MDI and Q-bu-MDI on the mechanical and electrical behavior of isolated guinea pig atria were investigated by the method of H. Nawrath, J. Pharmacol. Exp. Ther., 16, 176-182 (1980). The compounds were investigated over the concentration range of 10^-8 to 3×10^-4 M.
English short-haired guinea pigs, supplied by Carr Animal Supply, of Powell, Ohio, weighing 300-600 g. were killed by a blow on the head and both atria of the animal were quickly dissected out and suspended in a water-jacketed organ bath containing Krebs-Henseleit solution through which a 95% oxygen/5% carbon dioxide mixture was bubbled at 32° C. The solution contained 6.92 g/l of sodium chloride, 0.35 g/l of potassium chloride, 0.29 g/l of magnesium […] heptahydrate, 0.3 g/l of calcium chloride dihydrate, 0.16 g/l of potassium dihydrogen phosphate, 2.1 g/l of sodium bicarbonate and 2.1 g/l of dextrose. The contractile force generated by the isolated artria was recorded isometrically under a 500 mg. preload using a Narco Biosystems force transducer connected to a physiograph DMP-4B recorder, both the transducer and the recorder being obtained from E & M Instrument Co. of Houston, Texas.
The isolated left atria were electrically driven by square wave impulses of 3 milliseconds duration at a frequency of 3 Hz. and a voltage of twice the threshold voltage, delivered by a Grass S9 stimulator obtained from Grass Instrument Co., of Quincy, Massachusetts. Two platinum electrodes were used for the stimulation, the anode being in direct contact with the atrial tissue while the cathode had the form of a ring suspended 2.5 centimeters above the anode. Before redetermination of the threshold voltage and generation of a predrug (control) frequency-force profile over the range of 1-5 Hz., an equilibriation time of one hour was allowed. The system was then re-equilibriated at 3 Hz. and twice the threshold voltage as before, then one cumulative dose-response curve of contractile force for one test compound was obtained, followed immediately by redetermination of the threshold voltage and the generation of a post-drug frequency-force profile.
A paired Student's t-test was used to compare predrug and postdrug threshold voltages for each left atrial preparations as well as to compare developed tension at each frequency in the profile of each left atrial preparation. P values of less than 0.05 were considered statistically significant.

For data set [7] the following is noted: tested acutely and subchronically; earlier published work; cited from earlier work.
Where [8] appears, read: rat aorta contracted with 10^-7 M norepinephrine.
Where [9] appears, read: rat aorta contracted with 40 mM potassium chloride.

Take `CCCC[C@@H]1Cc2cc3c(cc2[C@@H]1[N+](C)(C)C)OCO3` (relative stereo) [cis sat-Q-bu-MDI]: the IC50 in data set [1] (setting [8]) turned out to be 281 µM; in data set [2] (setting [9]), 175 µM.
The matching figures for `CCC[C@@H]1Cc2cc3c(cc2[C@@H]1[N+](C)(C)C)OCO3` (relative stereo) [cis sat-Q-pr-MDI, cis-2-propyl-5,6-methylenedioxyindane-1-trimethylammonium iodide]: 1020 µM and 871 µM.
As to `CCCC[C@@H]1Cc2cc3c(cc2[C@@H]1N(C)C)OCO3` (relative stereo) [cis sat-bu-MDI, 2-butyl-5,6-methylenedioxyindane-1-dimethylammonium chloride], the IC50 was determined as 37.9 µM in data set [1] (Rattus norvegicus) and 17.4 µM in data set [2] (Rattus norvegicus). Moreover, the “comparative vasodilator activity, norepinephrine-treated tissue” value in data set [1] is “greater activity on norepinephrine treated tissue than the corresponding butyl compound of Formula I”. For the same compound, in data set [2], the “comparative vasodilator activity, potassium chloride-treated tissue” value is “substantially the same activity”.
For `CCC[C@@H]1Cc2cc3c(cc2[C@@H]1N(C)C)OCO3` (relative stereo) [cis sat-pr-MDI, 2-propyl-5,6-methylenedioxyindane-1-dimethylammonium chloride], the IC50 in data set [1] (Rattus norvegicus) was found to be 59.4 µM; in data set [2] (Rattus norvegicus), 30 µM. Also, in data set [1], the “comparative vasodilator activity, norepinephrine-treated tissue” value is on record as “substantially the same activity as the corresponding unsaturated propyl compound of Formula I”. Besides, the “comparative vasodilator activity, potassium chloride-treated tissue” value in data set [2] is recorded as “slightly lower activity”.
As for `CCCC[C@H]1Cc2cc3c(cc2[C@@H]1N(C)C)OCO3` (relative stereo) [trans sat-bu-MDI], the values for the IC50 in data set [1] (Rattus norvegicus) and in data set [2] (Rattus norvegicus) were 151 to 173 µM and 31.1 µM, respectively.
In the case of `CCC[C@H]1Cc2cc3c(cc2[C@@H]1N(C)C)OCO3` (relative stereo) [trans sat-pr-MDI, 2-propyl-5,6-methylenedioxyindane-1-dimethylammonium chloride], the IC50 in data set [1] (Rattus norvegicus) is 383 µM; in data set [2] (Rattus norvegicus), 98.9 µM.
For `CCCC1=Cc2cc3c(cc2C1[N+](C)(C)C)OCO3.[I-]` (stereo not drawn) [Q-pr-MDI, 2-propyl-5,6-methylenedioxyindene-1-trimethylammonium iodide], the “relaxation of the aortic tissue” value in data set [1] was “relaxed the aortic tissue”. Further, in data set [1], the “comparative vasodilator activity, norepinephrine-treated tissue” value was “less active in vitro than their tertiary analogs”. The IC50 in data set [1] (setting [8]) came to 382 µM; in data set [2] (setting [9]), 547 µM.
As for `NC[C@H](O)c1ccc(O)c(O)c1` [norepinephrine, reference compound], the “control tension as percent of the maximum inducible contraction” value in data set [1] (10^-7 M norepinephrine) came out at 85.1%. This compound came in with a control tension generated in data set [1] (10^-7 M norepinephrine, rat aortic strip) of 0.98 ± 0.03 g.
On to `[Cl-].[K+]` [potassium chloride, reference compound], for which, in data set [2] (40 mM potassium chloride), the “control tension as percent of the maximum inducible contraction” value is listed as 84.2%. The compound also returned a control tension generated in data set [2] (40 mM potassium chloride, rat aortic strip) of 0.89 ± 0.05 g.
Turning to `CCCC1=Cc2cc3c(cc2C1N(C)C)OCO3.Cl` (stereo not drawn) [pr-MDI, 2-propyl-5,6-methylenedioxyindene-1-dimethylammonium chloride, reference compound], the “potency and safety against calcium-induced arrhythmia versus verapamil” value in data set [3] (earlier work of applicants) was “more potent and safer then verapamil”. The “concentration effective against calcium-induced arrhythmias” value in data set [3] (i.v., 10 min before CaCl2) is 3.75 mg/kg. The deleterious side effects entry in data set [3] (i.v., Q-bu-MDI at 0.5 mg/kg, pr-MDI and bu-MDI at 3.75 mg/kg) is given as “without deleterious side effects”. Also, the “Therapeutic Index (LD50/ED50)” value in data set [4] (ED50 from chloroform anoxia, LD50 i.p.) worked out at 2.7. Besides, the “potency against chloroform/anoxia-induced arrhythmia versus quinidine” value in data set [4] (earlier work of applicants) was “as potent as quinidine”. Moreover, the ED50 in data set [4] (n = 40, 10 min) came out at 68 mg/kg; in data set [4] (n = 40, listed as Pr--MDI, 10 min), 68.0 mg/kg. In data set [4] (quinidine = 1.00, chloroform anoxia), the “Antiarrhythmic Potency” value amounted to 0.99. In addition, the 50% lethal dose (LD50) in data set [5] turned out to be 185 mg/kg. The “effect on frequency-force profile/relation of the stimulated left atrium” value in data set [6] (3×10^-4 M) is reported as “virtually identical to that of the butyl homolog”. Besides, the “overall effect on mechanical and electrical behavior of atria” value in data set [6] (10^-8 to 3×10^-4 M) was “generally similar to those of bu-MDI”. Besides, in data set [1], the “relaxation of the aortic tissue” value was “relaxed the aortic tissue”. Moreover, the “comparative vasodilator activity, norepinephrine-treated tissue” value in data set [1] is “considerably more active than Q-pr-MDI”. Further, the IC50 in data set [1] (setting [8]) turned out to be 78.2 µM; in data set [2] (setting [9]) it was 21.4 µM. For the same compound, the toxicity entry in data set [7] was “remarkable lack of toxicity”.
As to `C=C[C@H]1C[N@@]2CC[C@H]1C[C@@H]2[C@@H](O)c1ccnc2ccc(OC)cc12` [quinidine, reference compound], the “effect on the S wave” value in data set [3] (8 mg/kg (minimum effective concentration)) is “severely deepened the S wave”. The ED50 in data set [4] (Mus musculus, ip, 10 min, n = 40, read-out: ED50) was found to be 67 mg/kg.
